In patent US9918915B2, “Personal care compositions providing enhanced cooling sensation” (THE PROCTER & GAMBLE COMPANY, priority 2007, dated 2018):
Several values for one entry are separate records, joined by “and”; a condition that tells them apart may be missing. Identical values can stand only once. Blank lines part the entries; values can stand above or below the molecule they belong to.

How the values were obtained:
panelists = assay: Sensory evaluation of cooling sensation after brushing with coolant dentifrice followed by aqueous rinse with or without calcium; assay type: in vivo, human; design: key to Cooling Sensation Score: 0 = no cooling, 60 = intense cooling; 7.5 = definite cooling; settings: for Cooling Sensation Score: 0-60 scale
Method: Sensory evaluation studies of coolant activity were conducted using a methodology patterned after the techniques described in M. C. Meilgaard, et al., Sensory Evaluation Techniques, 4th Ed. (2007). In one study, a panel of 11 trained sensory experts evaluated cooling sensation experienced after brushing with a dentifrice containing coolant(s) followed by rinsing with an aqueous rinse containing a calcium ion source. Panelists brushed teeth with 1.5 grams of a test dentifrice (containing coolant) or control (no coolant) and then expectorated. After brush expectoration, panelists evaluated cooling intensity, assigning a number between 0 (no cooling) to 60 (intense cooling). Panelists then rinsed mouth with 15 ml. of an aqueous rinse (with or without calcium) and expectorated. After rinse expectoration, panelists evaluated cooling intensity according to the same 0 to 60 scale. Evaluations were conducted at 5, 15, 30, 45, 60 minute, etc. time points. At each evaluation, panelists were instructed to breathe in through pursed lips and evaluate overall cooling sensation. In this test, a numerical score of 7.5 indicates meaningful or definite cooling.

human TRPM8 = human TRPM8 (Homo sapiens, UniProt Q7Z2W7); assay: FLIPR intracellular calcium flux (Fluo-4) in HEK cells stably transfected with human TRPM8; settings: for Average Fluorescence (n = 3): Fluo-4; for % Change from G-180 value: pre-treatment with 100 uM test compound + 6.25 uM G-180 vs 6.25 uM G-180 alone, calcium fluorescence
[1] = concentration where the cooling effect could be clearly recognized; cited from earlier work
[2] = pre-treatment with 100 uM test compound for 30 minutes, then 6.25 uM G-180, HEK cells with human TRPM8

Sequence of human TRPM8 (Q7Z2W7 whole entry): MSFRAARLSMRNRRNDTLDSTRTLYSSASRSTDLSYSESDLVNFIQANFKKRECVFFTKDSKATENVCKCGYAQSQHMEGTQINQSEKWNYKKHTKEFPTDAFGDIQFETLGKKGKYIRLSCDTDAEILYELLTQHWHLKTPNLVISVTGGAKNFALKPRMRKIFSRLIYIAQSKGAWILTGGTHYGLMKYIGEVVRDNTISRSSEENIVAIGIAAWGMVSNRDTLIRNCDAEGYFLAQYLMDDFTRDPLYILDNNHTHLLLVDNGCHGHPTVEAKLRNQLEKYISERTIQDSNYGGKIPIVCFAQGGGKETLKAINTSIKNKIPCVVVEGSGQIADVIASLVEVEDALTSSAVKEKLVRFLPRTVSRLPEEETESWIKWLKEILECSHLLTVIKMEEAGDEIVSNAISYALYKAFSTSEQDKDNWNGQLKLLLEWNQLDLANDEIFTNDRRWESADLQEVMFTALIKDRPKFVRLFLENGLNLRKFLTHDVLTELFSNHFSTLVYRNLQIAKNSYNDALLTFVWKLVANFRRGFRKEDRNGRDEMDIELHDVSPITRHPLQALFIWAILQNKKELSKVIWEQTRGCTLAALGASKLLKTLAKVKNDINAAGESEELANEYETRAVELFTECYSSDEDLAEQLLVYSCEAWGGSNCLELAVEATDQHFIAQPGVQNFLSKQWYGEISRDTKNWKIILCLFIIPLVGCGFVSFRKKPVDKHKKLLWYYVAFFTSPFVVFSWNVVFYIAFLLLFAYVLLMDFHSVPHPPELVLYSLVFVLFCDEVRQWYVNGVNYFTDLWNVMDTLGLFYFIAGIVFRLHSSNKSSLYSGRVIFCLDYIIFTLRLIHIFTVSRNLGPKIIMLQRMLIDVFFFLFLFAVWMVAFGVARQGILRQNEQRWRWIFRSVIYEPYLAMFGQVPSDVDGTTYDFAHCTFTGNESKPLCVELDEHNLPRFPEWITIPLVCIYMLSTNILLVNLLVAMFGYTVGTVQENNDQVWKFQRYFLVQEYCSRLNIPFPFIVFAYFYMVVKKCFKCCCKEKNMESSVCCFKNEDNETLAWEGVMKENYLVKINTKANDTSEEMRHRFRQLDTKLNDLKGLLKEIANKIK

SMILES: CC1CCC(C(C)C)C(C(=O)Nc2ccc(CC#N)cc2)C1 (stereo not shown) [Composition G-180, N-(4-cyanomethylphenyl)-ρ-menthanecarboxamide]
Cooling Sensation Score (panelists; 75 ppm coolant in paste, rinse Ca+2 0 ppm, 0 min.): 21.1
Cooling Sensation Score (panelists; 75 ppm coolant in paste, rinse Ca+2 0 ppm, 5 min.): 23.7
Cooling Sensation Score (panelists; 75 ppm coolant in paste, rinse Ca+2 0 ppm, 15 min.): 22.9
Cooling Sensation Score (panelists; 75 ppm coolant in paste, rinse Ca+2 0 ppm, 30 min.): 15.0
Cooling Sensation Score (panelists; 75 ppm coolant in paste, rinse Ca+2 0 ppm, 45 min.): 11.0
Cooling Sensation Score (panelists; 75 ppm coolant in paste, rinse Ca+2 0 ppm, 60 min.): 5.8
Cooling Sensation Score (panelists; 75 ppm coolant in paste, rinse Ca+2 271 ppm, 0 min.): 17.5
Cooling Sensation Score (panelists; 75 ppm coolant in paste, rinse Ca+2 271 ppm, 5 min.): 18.3
Cooling Sensation Score (panelists; 75 ppm coolant in paste, rinse Ca+2 271 ppm, 15 min.): 20.7
Cooling Sensation Score (panelists; 75 ppm coolant in paste, rinse Ca+2 271 ppm, 30 min.): 16.8
Cooling Sensation Score (panelists; 75 ppm coolant in paste, rinse Ca+2 271 ppm, 45 min.): 13.3
Cooling Sensation Score (panelists; 75 ppm coolant in paste, rinse Ca+2 271 ppm, 60 min.): 8.4
Cooling Sensation Score (panelists; 75 ppm coolant in paste, rinse Ca+2 542 ppm, 0 min.): 18.8
Cooling Sensation Score (panelists; 75 ppm coolant in paste, rinse Ca+2 542 ppm, 5 min.): 25.0
Cooling Sensation Score (panelists; 75 ppm coolant in paste, rinse Ca+2 542 ppm, 15 min.): 29.2
Cooling Sensation Score (panelists; 75 ppm coolant in paste, rinse Ca+2 542 ppm, 30 min.): 24.4
Cooling Sensation Score (panelists; 75 ppm coolant in paste, rinse Ca+2 542 ppm, 45 min.): 18.6
Cooling Sensation Score (panelists; 75 ppm coolant in paste, rinse Ca+2 542 ppm, 60 min.): 14.1
Cooling Sensation Score (panelists; 150 ppm coolant in paste, rinse Ca+2 0 ppm, 0 min.): 16.7
Cooling Sensation Score (panelists; 150 ppm coolant in paste, rinse Ca+2 0 ppm, 5 min.): 16.0
Cooling Sensation Score (panelists; 150 ppm coolant in paste, rinse Ca+2 0 ppm, 15 min.): 25.7
Cooling Sensation Score (panelists; 150 ppm coolant in paste, rinse Ca+2 0 ppm, 30 min.): 19.5
Cooling Sensation Score (panelists; 150 ppm coolant in paste, rinse Ca+2 0 ppm, 45 min.): 10.0
Cooling Sensation Score (panelists; 150 ppm coolant in paste, rinse Ca+2 0 ppm, 60 min.): 1.5
Cooling Sensation Score (panelists; 150 ppm coolant in paste, rinse Ca+2 271 ppm, 0 min.): 12.1
Cooling Sensation Score (panelists; 150 ppm coolant in paste, rinse Ca+2 271 ppm, 5 min.): 22.5
Cooling Sensation Score (panelists; 150 ppm coolant in paste, rinse Ca+2 271 ppm, 15 min.): 26.0
Cooling Sensation Score (panelists; 150 ppm coolant in paste, rinse Ca+2 271 ppm, 30 min.): 17.1
Cooling Sensation Score (panelists; 150 ppm coolant in paste, rinse Ca+2 271 ppm, 45 min.): 11.2
Cooling Sensation Score (panelists; 150 ppm coolant in paste, rinse Ca+2 271 ppm, 60 min.): 0
Cooling Sensation Score (panelists; 150 ppm coolant in paste, rinse Ca+2 542 ppm, 0 min.): 15.1
Cooling Sensation Score (panelists; 150 ppm coolant in paste, rinse Ca+2 542 ppm, 5 min.): 21.9
Cooling Sensation Score (panelists; 150 ppm coolant in paste, rinse Ca+2 542 ppm, 15 min.): 27.2
Cooling Sensation Score (panelists; 150 ppm coolant in paste, rinse Ca+2 542 ppm, 30 min.): 24.8
Cooling Sensation Score (panelists; 150 ppm coolant in paste, rinse Ca+2 542 ppm, 45 min.): 18.2
Cooling Sensation Score (panelists; 150 ppm coolant in paste, rinse Ca+2 542 ppm, 60 min.): 8.0
Potentiating effect of calcium ions on cooling intensity and duration (panelists; at the levels of coolant and calcium used): particularly evident
Duration of cooling with calcium (panelists; dentifrice followed by calcium rinse): up to 60 minutes
Sensation described by panelists (panelists; particularly when used at higher levels): “burning” sensation
Average Fluorescence (n = 3) (human TRPM8; 6.25 uM G-180 alone, HEK cells with human TRPM8): 14901.88 and 17511.73 and 17474.37
Activation of the TRPM8 receptor (calcium ion flux vs. control) (human TRPM8; 6.25 uM, HEK cells with human TRPM8): activated the TRPM8 receptor

SMILES: CC1CCC(C(C)C)C(O)C1 (stereo not shown) [Menthol, menthol]
Cooling Sensation Score (panelists; 1500 ppm coolant in paste, rinse Ca+2 542 ppm, 0 min.): 18.0
Cooling Sensation Score (panelists; 1500 ppm coolant in paste, rinse Ca+2 542 ppm, 5 min.): 17.5
Cooling Sensation Score (panelists; 1500 ppm coolant in paste, rinse Ca+2 542 ppm, 15 min.): 4.4
Cooling Sensation Score (panelists; 1500 ppm coolant in paste, rinse Ca+2 542 ppm, 30 min.): 0
Cooling Sensation Score (panelists; 1500 ppm coolant in paste, rinse Ca+2 542 ppm, 45 min.): 0
Cooling Sensation Score (panelists; 1500 ppm coolant in paste, rinse Ca+2 542 ppm, 60 min.): 0
Calcium enhancing effect on cooling (panelists; 1500 ppm level of coolant in dentifrice): calcium enhancing effect was not observed
Cooling threshold [1]: about 800 ppb

SMILES: CC(C)[C@@H]1CC[C@@H](C)C[C@@H]1O [d-neomenthol]
Cooling threshold [1]: about 25,000 ppb

SMILES: CC(C)[C@H]1CC[C@H](C)C[C@H]1O [l-neomenthol]
Cooling threshold [1]: about 3,000 ppb

Continued, values first:

Average Fluorescence (n = 3) (human TRPM8; 100 uM test compound alone (direct effect on TRPM8), HEK cells with human TRPM8): 129.38
% Change from G-180 value (human TRPM8): 23.36%
% Change from G-180 value (human TRPM8; listed as Phytic Acid): 21.20%
% Change from G-180 value (human TRPM8; listed as phytic acid): 23.36%
Average Fluorescence (n = 3) (human TRPM8; [2]): 18382.62
Average Fluorescence (n = 3) (human TRPM8; pre-treatment with 100 uM test compound for 30 minutes, then 6.25 uM G-180, HEK cells with human TRPM8, listed as Phytic Acid): 21178.86
Modulation of the G-180 activity at TRPM8 (human TRPM8; separate experiments using the same protocol, 100 uM + 6.25 uM G-180): positive modulation was confirmed
SMILES: O=P(O)(O)O[C@H]1[C@H](OP(=O)(O)O)[C@@H](OP(=O)(O)O)[C@H](OP(=O)(O)O)[C@@H](OP(=O)(O)O)[C@H]1OP(=O)(O)O [Phytic acid, myo-inositol 1,2,3,4,5,6-hexakis (dihydrogen phosphate)]

% Change from G-180 value (human TRPM8): 3.22%
Average Fluorescence (n = 3) (human TRPM8; [2]): 18075.77
SMILES: O=P([O-])(O)OP(=O)([O-])O.[Na+].[Na+] [Sodium acid pyrophosphate]

% Change from G-180 value (human TRPM8): 5.10%
Average Fluorescence (n = 3) (human TRPM8; [2]): 18404.83
SMILES: CCCCCCCCCCCCOP(=O)([O-])[O-].[Na+].[Na+] [Sodium lauryl phosphate]

% Change from G-180 value (human TRPM8): 5.69%
Average Fluorescence (n = 3) (human TRPM8; [2]): 18508.43
SMILES: O=P(O)(O)OP(=O)(O)OP(=O)(O)O [Sodium tripolyphosphate]
